The values below come from patent US11241436B2, “Autophagy inducers for treatment of CNS conditions” (Northwestern University, priority 2017, dated 2022).

The term AC50 denotes the midpoint of the concentration-response curve, whichever way the signal moves. High values mean activity only at high concentration, low ones activity at low concentration.

In this assay the test system is LC3. As to the kind of experiment: Promega Autophagy Assay System (HiBiT-tagged LC3 reporter, autophagy flux). In kind it is cell-based. The note with it: LC3 reporter signal; decrease = increased autophagy. The source says:
The Promega Augophagy Assay System uses LC3 to monitor the autophagy process. […] LgBiT is a […] recombinant protein derived from NanoLuc. When HiBiT associates with LgBiT, a strong luciferase activity is reconstituted. An increase in autophagy will accelerate the degradation of LC3 reporter which decreases the assay signal. In contrast, inhibition of autophagy causes the accumulation of LC3 which will increase the reporter levels and assay signal.
(In general: With HiBiT, luminescence reflects the tagged protein that the partner subunit can reach.)
`COC(Cn1cnc2c(c(-c3ccccc3)c(-c3ccccc3)n2Cc2ccccc2)c1=N)OC` returned an AC50 of 0.231 µM.
Next, `N=c1c2c(-c3ccccc3)c(-c3ccccc3)n(CC3CCCCC3)c2ncn1C[C@H]1CCCC[C@@H]1O`: 0.366 µM; `N=c1c2c(-c3ccccc3)c(-c3ccccc3)n(CCc3ccccc3)c2ncn1[C@H]1CC[C@H](O)CC1`: 1.16 µM.
Consider `COc1ccc(Cn2c(-c3ccccc3)c(-c3ccccc3)c3c(=N)n([C@H]4CC[C@H](O)CC4)cnc32)cc1`, for which the concentration at half-maximal activity (AC50) stood at 1.64 µM.
Take `N=c1c2c(-c3ccccc3)c(-c3ccccc3)n(Cc3ccccc3)c2ncn1CCC1CCC(O)CC1` (stereo not drawn): half-maximal activity (AC50) was put at 1.84 µM.
Next, `N=c1c2c(-c3ccccc3)c(-c3ccccc3)n(Cc3ccccc3)c2ncn1C1CCOCC1`: 2.31 µM; `COc1ccc(Cn2c(-c3ccccc3)c(-c3ccccc3)c3c(=N)n(CCO)cnc32)cc1`: 2.59 µM.
As for `COc1ccc(Cn2c(-c3ccccc3)c(-c3ccccc3)c3c(=N)n(C4CCOCC4)cnc32)cc1`, the figure is 2.59 µM; as for `N=c1c2c(-c3ccccc3)c(-c3ccccc3)n(Cc3ccc(OC(F)(F)F)cc3)c2ncn1[C@H]1CC[C@H](O)CC1`, 2.59 µM; as for `N=c1c2c(-c3ccccc3)c(-c3ccccc3)n(Cc3ccccc3)c2ncn1C1CCC(O)CC1` (stereo not drawn), 2.91 µM.
On to `CO[C@H]1CC[C@H](n2cnc3c(c(-c4ccccc4)c(-c4ccccc4)n3Cc3ccccc3)c2=N)CC1`, for which the AC50 came out at 2.91 µM.
`COC1CCC(n2cnc3c(c(-c4ccccc4)c(-c4ccccc4)n3Cc3ccc(OC(F)(F)F)cc3)c2=N)CC1` (stereo not drawn) yielded a half-maximal activity concentration (AC50) of 2.91 µM.
Next, `N=c1c2c(-c3ccccc3)c(-c3ccccc3)n(CCc3ccccc3)c2ncn1CC1CCOC1` (stereo not drawn): 9.2 µM.
As for `N=c1c2c(-c3ccccc3)c(-c3ccccc3)n(Cc3ccc(OC(F)(F)F)cc3)c2ncn1C1CCOCC1`, the figure is 9.2 µM; as for `N=c1c2c(-c3ccccc3)c(-c3ccccc3)n(Cc3ccc(OC(F)(F)F)cc3)c2ncn1CC1CCOCC1`, 9.2 µM; as for `N=c1c2c(-c3ccccc3)c(-c3ccccc3)n(Cc3ccc(OC(F)(F)F)cc3)c2ncn1CCCO`, 9.2 µM.
Next, `N=c1c2c(-c3ccccc3)c(-c3ccccc3)n(Cc3ccccc3)c2ncn1CCCCCO`: 10.3 µM; `CN(C)CCn1cnc2c(c(-c3ccccc3)c(-c3ccccc3)n2Cc2ccccc2)c1=N`: 10.3 µM.
As for `N=c1c2c(-c3ccccc3)c(-c3ccccc3)n(CCc3ccccc3)c2ncn1CCCCO`, the AC50 is 10.3 µM.
As for `COc1ccc(Cn2c(-c3ccccc3)c(-c3ccccc3)c3c(=N)n(CCCCO)cnc32)cc1`, the figure is 10.3 µM; as for `N=c1c2c(-c3ccccc3)c(-c3ccccc3)n(CCc3ccccc3)c2ncn1CC1CCOCC1`, 10.3 µM; as for `N=c1c2c(-c3ccccc3)c(-c3ccccc3)n(Cc3ccccc3)c2ncn1CC1CCOCC1`, 10.3 µM.
Next, `N=c1c2c(-c3ccccc3)c(-c3ccccc3)n(CC3CC3)c2ncn1CCCO`: 10.3 µM.
As for `N=c1c2c(-c3ccccc3)c(-c3ccccc3)n(CC3CCCCC3)c2ncn1C1CCOCC1`, the figure is 10.3 µM; as for `COCCn1cnc2c(c(-c3ccccc3)cn2Cc2ccccc2)c1=N`, 11.6 µM; as for `N=c1c2c(-c3ccccc3)c(-c3ccccc3)n(Cc3ccccc3)c2ncn1CCCCO`, 11.6 µM.
As to `CC[Si](CC)(CC)OCCCn1cnc2c(c(-c3ccccc3)cn2Cc2ccc(Br)cc2)c1=N`, the AC50 was determined as 13 µM.
For `COCCn1cnc2c(c(-c3ccccc3)c(-c3ccccc3)n2Cc2ccccc2)c1=N`, the activity was half-maximal at 13 µM (AC50).
Take `N=c1c2c(-c3ccccc3)c(-c3ccccc3)n(Cc3ccccc3)c2ncn1CCN`: half-maximal activity (AC50) was put at 13 µM.
`N=c1c2c(-c3ccccc3)c(-c3ccccc3)n(CCc3ccccc3)c2ncn1CCCCCO`: the activity was half-maximal at 13 µM (AC50).
Next, `CCOC(CCCn1cnc2c(c(-c3ccccc3)c(-c3ccccc3)n2CCc2ccccc2)c1=N)OCC`: 13 µM; `COC(=O)c1cccc(Cn2cnc3c(c(-c4ccccc4)c(-c4ccccc4)n3CCc3ccccc3)c2=N)c1`: 13 µM.
For `N=c1c2c(-c3ccccc3)c(-c3ccccc3)n(Cc3ccccc3)c2ncn1C[C@@H]1CCCC[C@H]1O`, the concentration at half-maximal activity (AC50) is 13 µM.
Next, `COc1ccc(-c2c(-c3ccc(OC)cc3)n(Cc3ccccc3)c3ncn([C@H]4CC[C@H](OC)CC4)c(=N)c23)cc1`: 13 µM; `N=c1c2c(-c3ccccc3)cn(Cc3ccccc3)c2ncn1[C@@H]1CCCC[C@H]1N`: 14.6 µM.
As for `N=c1c2c(-c3ccccc3)c(-c3ccccc3)n(Cc3ccccc3)c2ncn1CC1CCCO1` (stereo not drawn), the figure is 14.6 µM; as for `N=c1c2c(-c3ccccc3)c(-c3ccccc3)n(CC3CCCCC3)c2ncn1CC1CCOCC1`, 14.6 µM; as for `N=c1c2c(-c3ccccc3)cn(Cc3ccc(Br)cc3)c2ncn1CCCN1CCN(c2ccccc2)CC1`, 16.4 µM.
As to `N=c1c2c(-c3ccccc3)cn(Cc3ccccc3)c2ncn1C1CCC(O)CC1` (stereo not drawn), the AC50 was 16.4 µM.
As for `COc1ccc(CCn2cnc3c(c(-c4ccccc4)cn3Cc3ccccc3)c2=N)cc1OC`, half-maximal activity (AC50) was put at 16.4 µM.
With `N=c1c2c(-c3ccccc3)cn(Cc3ccccc3)c2ncn1Cc1ccco1`, the half-maximal activity concentration (AC50) is 16.4 µM.
The compound `N=c1c2c(-c3ccccc3)c(-c3ccccc3)n(Cc3ccccc3)c2ncn1Cc1ccc2c(c1)OCO2` had an AC50 of 16.4 µM.
As for `COc1ccc(Cn2c(-c3ccccc3)c(-c3ccccc3)c3c(=N)n(CC(OC)OC)cnc32)cc1`, the figure is 16.4 µM; as for `N=c1c2c(-c3ccccc3)c(-c3ccccc3)n(CC3CCCCC3)c2ncn1[C@H]1CC[C@H](O)CC1`, 16.4 µM.
As for `N=c1c2c(-c3ccc4c(c3)OCO4)c(-c3ccc4c(c3)OCO4)n(Cc3ccccc3)c2ncn1C1CCOCC1`, the figure is 18.4 µM; as for `N=c1c2c(-c3ccccc3)c(-c3ccccc3)n(CCc3ccccc3)c2ncn1C[C@@H]1CCCC[C@H]1O`, 18.4 µM; as for `N=c1c2c3c(n(CCc4ccccc4)c2ncn1CCCO)CCCC3`, 18.4 µM.
As for `N=c1c2c(-c3ccccc3)c(-c3ccccc3)n(Cc3ccccc3)c2ncn1CCNc1ccncc1`, the figure is 20.6 µM; as for `CCOC(CCCn1cnc2c(c(-c3ccccc3)c(-c3ccccc3)n2Cc2ccccc2)c1=N)OCC`, 20.6 µM.
`COCCn1cnc2c(c(-c3ccccc3)c(-c3ccccc3)n2CCc2ccccc2)c1=N`: the concentration at half-maximal activity (AC50) was found to be 20.6 µM.
As for `N=c1c2c(-c3ccccc3)c(-c3ccccc3)n(CCc3ccccc3)c2ncn1[C@H](CO)Cc1ccccc1`, the figure is 20.6 µM; as for `CCOC(CCCn1cnc2c(c(-c3ccccc3)c(-c3ccccc3)n2Cc2ccc(OC)cc2)c1=N)OCC`, 20.6 µM.
As for `COc1ccc(Cn2c(-c3ccccc3)c(-c3ccccc3)c3c(=N)n([C@H](C)[C@@H](O)c4ccccc4)cnc32)cc1`, the figure is 20.6 µM; as for `COc1ccc(Cn2c(-c3ccccc3)c(-c3ccccc3)c3c(=N)n(CC4CCCO4)cnc32)cc1` (stereo not drawn), 20.6 µM.
The compound `COc1ccc(Cn2c(-c3ccccc3)c(-c3ccccc3)c3c(=N)n(N4CCOCC4)cnc32)cc1` registered an AC50 of 20.6 µM.
Regarding `N=c1c2c(-c3ccccc3)c(-c3ccccc3)n(Cc3ccccc3)c2ncn1CC1CCOC1` (stereo not drawn), the activity was half-maximal at 20.6 µM (AC50).
As for `COc1ccc(-c2c(-c3ccc(OC)cc3)n(Cc3ccccc3)c3ncn(CCCO)c(=N)c23)cc1`, the figure is 20.6 µM.
Next, `N=c1c2c(-c3ccccc3)c(-c3ccccc3)n(CC3CC3)c2ncn1CC1CCOCC1`: 20.6 µM.
As for `COc1ccc(-c2c(-c3ccc(OC)cc3)n(Cc3ccccc3)c3ncn(CC4CCOCC4)c(=N)c23)cc1`, the figure is 20.6 µM; as for `COc1ccc(-c2c(-c3ccc(OC)cc3)n(Cc3ccccc3)c3ncn([C@@H]4CCCC[C@H]4CO)c(=N)c23)cc1`, 20.6 µM.
As for `Cc1ccc(-c2c(C(=O)CF)n(CCCO)c3ncnc(N)c23)cc1`, half-maximal activity (AC50) was put at 20.6 µM.
Next, `N=c1c2c(-c3ccccc3)cn(Cc3ccccc3)c2ncn1CCCN1CCN(c2ccccc2)CC1`: 23.1 µM.
In the case of `N=c1c2c(-c3ccccc3)c(-c3ccccc3)n(Cc3ccccc3)c2ncn1[C@H](CO)Cc1ccccc1`, the AC50 worked out at 23.1 µM.
`COC(Cn1cnc2c(c(-c3ccccc3)c(-c3ccccc3)n2CCc2ccccc2)c1=N)OC`: the activity was half-maximal at 23.1 µM (AC50).
As for `COc1ccc(CCn2cnc3c(c(-c4ccccc4)c(-c4ccccc4)n3Cc3ccccc3)c2=N)cc1OC`, the figure is 23.1 µM; as for `N=c1c2c(-c3ccccc3)c(-c3ccccc3)n(CCc3ccccc3)c2ncn1CC1CCCO1` (stereo not drawn), 23.1 µM.
Next, `COCCn1cnc2c(c(-c3ccccc3)c(-c3ccccc3)n2Cc2ccc(OC)cc2)c1=N`: 23.1 µM.
Next, `COc1ccc(-c2c(-c3ccc(OC)cc3)n(Cc3ccccc3)c3ncn(C4CCOCC4)c(=N)c23)cc1`: 23.1 µM; `Cc1c(C)n(Cc2ccccc2)c2ncn(C3CCOCC3)c(=N)c12`: 23.1 µM; `Cc1ccc(-c2c(C(=O)CCl)n(CCCO)c3ncnc(N)c23)cc1`: 23.1 µM.
Consider `N=c1c2c(-c3ccccc3)cn(Cc3ccc(Br)cc3)c2ncn1CCCCO`, for which half-maximal activity (AC50) was put at 25.9 µM.
Consider `N=c1c2c(-c3ccccc3)cn(Cc3ccccc3)c2ncn1[C@H](CO)Cc1ccccc1`, for which the half-maximal activity concentration (AC50) worked out at 25.9 µM.
The compound `N=c1c2c(-c3ccccc3)cn(Cc3ccccc3)c2ncn1C(CO)(CO)CO` gave an AC50 of 29.1 µM.
As for `N=c1c2c(-c3ccccc3)c(-c3ccccc3)n(Cc3ccccc3)c2ncn1CCCN1CCN(c2ccccc2)CC1`, the figure is 29.1 µM; as for `CN(C)CCCn1cnc2c(c(-c3ccccc3)c(-c3ccccc3)n2Cc2ccccc2)c1=N`, 29.1 µM.
Next, `C[C@H]([C@@H](O)c1ccccc1)n1cnc2c(c(-c3ccccc3)c(-c3ccccc3)n2Cc2ccccc2)c1=N`: 29.1 µM; `N=c1c2c(-c3ccccc3)c(-c3ccccc3)n(Cc3ccccc3)c2ncn1C1CCN(Cc2ccccc2)CC1`: 29.1 µM.
On to `CN(C)CCCn1cnc2c(c(-c3ccccc3)c(-c3ccccc3)n2CCc2ccccc2)c1=N`, for which half-maximal activity (AC50) was put at 32.6 µM.
